How the values were obtained:
[1] = tested on: regulatory region of protein kinase C (PKC); test: aligned peptide array membrane reacted with tritium-labeled phorbol ester, autoradiography; type: binding; settings: peptide segments of formula (III); phorbol ester labeled with tritium (3H)
Description: First of all, an amino acid sequence corresponding to a portion of the regulatory region of protein kinase C (PKC) was divided as shown in the following formula (III), and the corresponding peptide segments were synthesized. Then, an aligned peptide array membrane was prepared in the same manner as given in Example 1. [formula]
(§1) The aligned peptide array membrane was reacted with a phorbol ester labeled with tritium (^3H) and then brought into contact with a photographic film. Thus, the reaction spot was identified by autoradiography.

[2] = tested on: third peptide segment, in which one amino acid had been replaced; test: aligned peptide array membrane with one amino acid replaced in the third peptide segment, autoradiography; type: binding; settings: formula (IV): G (glycine) in the third peptide segment replaced by E (glutamate)
Description: as §1
In the third peptide segment detected in Example 2, one amino acid was replaced as shown in the following formula (IV). Excepting this modification, detection was carried out in the same manner as in Example 2. [formula]

CCCCCCCCCCCCCC(=O)O[C@@H]1[C@@H](C)[C@@]2(O)[C@@H](C=C(CO)C[C@]3(O)C(=O)C(C)=C[C@@H]23)[C@@H]2C(C)(C)[C@]12OC(C)=O [phorbol ester]
exposure to radiation at the position of the peptide segment [1]: exposure to radiation was observed at the position of the peptide segment corresponding to the third sequence segment of formula (III)
exposure to radiation at the position of the peptide segment [2]: no exposure to radiation was observed at the position of the third peptide segment

— patent EP0818467B1, “Aligned peptide array and a rational and rapid method for the detection of a binding or interaction site of a protein by using the same” (NEC CORPORATION, priority 1996, dated 1998)
